Source: US10959974B2, “Ingenol compounds and use thereof in anti-HIV latency treatment” (priority 2015, dated 2021)
In brackets after ≈: the same amount, converted by molar mass. Read-outs that look alike come from different tables or passages of the source.

Assays:
[1] = tested on: latent HIV in J-Lat-A10.6 cells; test: Activation of latent HIV in J-Lat-A10.6 cells, GFP fluorescence / flow cytometry; assay type: cell-based, human; conditions: 48 h
Description: (§1) The HIV latent cell model of the present invention comprises: a human T cell 10.6 clone strain carrying a green fluorescent protein gene (J-Lat-A10.6), which is provided by the National Institute of Health Research AIDS Reference Reagent Planning Department, established by Dr. Eric Verdin of the University of California.
(§2) The cells are small and the spherical cells are cultured in suspension. […]
(§3) J-Lat-A10.6 or C11 cells were seeded in 96-well plates at 2×10E4 cells per well, and 100 μl of 1640 medium (Gibco) containing 10% FBS (Gibco) was added to each well. After the cells were treated with the compounds in Examples 1-7 for 48 h, the green fluorescence expression of the cells was observed under a fluorescence microscope, the cells were collected for flow cytometry detection, and the proportion of fluorescent cells was analyzed.
(§4) J-Lat-A10.6 or C11 cells were seeded in 96-well plates at 2×10E4 cells per well, and 100 μl of 1640 medium (Gibco) containing 10% FBS (Gibco) was added to each well. After treatment with different concentrations of compounds (such as the compounds in Examples 1-7) and Prostratin for 48 h, the cells were collected for flow cytometry detection and the proportion of fluorescent cells was analyzed.

latent HIV in C11 cells = test: Activation of latent HIV in C11 cells, GFP fluorescence / flow cytometry; assay type: cell-based; conditions: for EC50: read-out: EC50 of activation of latent HIV-1
Description: The cells are small and the spherical cells are cultured in suspension. Human T cell Jurkat […] cells are transfected by the retroviral vector carrying the green fluorescent protein gene HIV-R7/E-/GFP and sorted (Jordan A, Bisgrove D, Verdin E. HIV reproducibly establishes a latent infection after acute infection EMBO J 22:1868-1877, 2003); another established HIV latent screening model C11 clone is obtained by the twice of the sorting and activation on HIV lentivirus-infected T cells. (Chinese patent: 200810038851. X).
as §3, §4

[2] = tested on: latent HIV in J-Lat-A10.6 or C11 cells; test: Activation of HIV expression in latent cells, flow cytometry of green fluorescent cells (cell line not given); assay type: cell-based, human; conditions: treated 48 h
Description: as §1, §2, §3, §4

[3] = tested on: resting CD4+ T cells isolated from the peripheral blood of AIDS patients; test: Activation of latent HIV in peripheral blood resting CD4+ T cells of AIDS patients, real-time PCR of HIV-1 mRNA; assay type: cell-based, human; conditions: 0.005 μM, 18 h; compared with control and 5 μg/ml PHA treated cells
Description: The resting CD4+ T cells isolated from the peripheral blood of 5 AIDS patients were treated with 5 μg/ml PHA (phytohemagglutinin) (positive control) and 0.005 μM compound 16A for 18 h, and then HIV-1 mRNA was extracted from resting CD4+ T cells and the medium, real-time PCR was used to detect the change of HIV-1 mRNA expression level in resting CD4+ T cells and medium, respectively.

[4] = tested on: cells in the known HIV-infected latent reservoir; test: Treatment of cells of the HIV-infected latent reservoir with compound, then antiretroviral drugs; assay type: cell-based; conditions: compound treatment followed by antiretroviral drugs, versus untreated viral latent reservoir

Row | SMILES | EC50 ([1]; Homo sapiens, flow cytometry, read-out: EC50 of activation of latent HIV-1) [nM] | EC50 (latent HIV in C11 cells; Human immunodeficiency virus 1, 48 h) [nM] | EC50 ([2]; flow cytometry, J-Lat-A10.6 or C11 cells (not specified for Table 1)) [ng/mL] | activation rate ([2]; proportion of fluorescent cells, J-Lat-A10.6 or C11 cells (not specified), untreated control 2%) [%] | proportion of green fluorescent positive cells ([1]; 10 nM, background about 1-2%) [%] | proportion of green fluorescent positive cells (latent HIV in C11 cells; 10 nM, 48 h, C11 cells) [%] | EC50 (latent HIV in C11 cells; C11 cells, 48 h, flow cytometry) [nM] | intracellular activated HIV-mRNA [3] | number of viral latent reservoir [4]
1 | CC(=O)O[C@@]12C[C@@H](C)[C@@]3(O)[C@@H](C=C(CO)C[C@]4(O)C(=O)C(C)=C[C@@H]34)[C@@H]1C2(C)C [Prostratin, reference compound] | 860 | 760 | – | – | – | – | – | – | –
2 | CCCCCCCCCCCC(=O)O[C@@]12C[C@@H](C)[C@]34C=C(C)[C@H](OC(=O)C(C)C(C)C)[C@@]3(O)[C@H](O)C(CO)=C[C@H](C4=O)[C@@H]1C2(C)C (stereo partly drawn) [Example 1, 3-O-(2,3-dimethylbutanoyl)-13-O-dodecanoyl ingenol] | – | – | 2.6 (≈ 4.03 nM) | 93 | 90 | ~80 | 3.53 | significantly higher | significantly lower
